In one assay the target is NAMPT (Homo sapiens (Human), UniProt P43490). Kind of assay: Biochemical Inhibition Assay (NAMPT enzymatic reaction, NMN by mass spectrometry). As to conditions: recombinant His-tagged NAMPT 33 nM, 1 μM NAM, 30 minutes; read-out: Biochem IC50. An outline of the steps: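 His-tagged human NAMPT from E. coli in 50 mM Hepes pH 7.5, 50 mM NaCl, 5 mM MgCl2, 1 mM THP. Product NMN quantified by RapidFire ESI mass spectrometry, normalised to L-cystathionine internal control and background-subtracted; % inhibition converted to IC50.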
Chain of NAMPT (P43490 whole entry): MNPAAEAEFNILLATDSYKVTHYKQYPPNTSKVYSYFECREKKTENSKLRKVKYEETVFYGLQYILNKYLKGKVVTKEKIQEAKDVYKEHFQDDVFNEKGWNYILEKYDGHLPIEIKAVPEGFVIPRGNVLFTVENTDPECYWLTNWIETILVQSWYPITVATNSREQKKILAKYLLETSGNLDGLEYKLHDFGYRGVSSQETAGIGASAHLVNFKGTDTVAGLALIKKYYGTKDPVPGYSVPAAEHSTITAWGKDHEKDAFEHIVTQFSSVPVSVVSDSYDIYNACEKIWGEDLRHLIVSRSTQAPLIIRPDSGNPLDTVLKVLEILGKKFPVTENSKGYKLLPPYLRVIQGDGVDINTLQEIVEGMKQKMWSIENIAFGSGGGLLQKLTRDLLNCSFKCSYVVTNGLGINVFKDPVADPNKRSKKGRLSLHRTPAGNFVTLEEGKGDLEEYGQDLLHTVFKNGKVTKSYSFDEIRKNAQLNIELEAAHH

The test system of assay [1] is A2780 cells. Kind of assay: In-Vitro Cell Proliferation Assay (SRB). As to conditions: Homo sapiens, A2780, 72 h. The class given is cell-based. A digest of the protocol:
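A2780 cells treated 72 h at 37 °C, 5% CO2 with serially diluted compound, 0.1% DMSO final. Viable cells by sulforhodamine B staining after TCA fixation, absorbance 570 nm, background-subtracted for % inhibition and IC50; specificity checked by co-addition of NAM or NMN.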

The subject of assay [2] is A2780 cells. Kind of assay: In Vivo Xenograft Studies. The note with it: A2780 xenograft in C.B-17 scid mice, p.o. BID for 5 or 10 days. Here is the method:
In Vivo Xenograft Studies: […] The compounds were formulated in 60:30:10 PEG-400:D5W: Ethanol and administered p.o., at the dose volume of 10 ml/kg BID for a duration of 5 or 10 days. The dose used for efficacy was selected from the MTD (Maximum Tolerated Dose) study. Mice were weighed and tumors measured using vernier calipers every alternate day. Tumor volume was calculated according to the formula (length×width^2)/2. All animal work was approved by the Institutional Animal Care and Use Committee of Biological Resource Centre, Singapore.

In a further assay the test system is tumor cell lines. As to conditions: broad range of tumor cell lines; cited from earlier work.
In a further assay the test system is mouse mammary carcinoma. As to conditions: mouse mammary carcinoma model; cited from earlier work.
In the next assay the test system is K562 leukemia cell line. As to conditions: cited from earlier work.
A further assay relates to HepG2 cells. The note with it: cited from earlier work.
Assay [3] deals with murine renal cell carcinoma. The note with it: cited from earlier work.
In the next assay the test system is THP-1 leukemia cell line. As to conditions: cited from earlier work.

`CCOc1ccccc1S(=O)(=O)c1ccc(CNC(=NC#N)Nc2ccncc2)cc1` [2-cyano-1-({4-[(2-ethoxybenzene)sulfonyl]phenyl}methyl)-3-(pyridin-4-yl)guanidine]: the IC50 stood at 7.1 nM at NAMPT and 3.5 nM in the assay on A2780 cells [1]. Further, in the assay with A2780 cells [2], the “effect on tumor growth” value is “delayed tumor growth”.
In the case of `CC(C)NC(=O)c1cccc(S(=O)(=O)c2ccc(CNC(=NC#N)Nc3ccncc3)cc2)c1` [3-[(4-{[2-cyano-3-(pyridin-4-yl)carbamimidamido]methyl}benzene)sulfonyl]-N-(propan-2-yl)benzamide], the IC50 on NAMPT was 4.3 nM; with A2780 cells [1] it was 16.9 nM.
For `N#CN=C(NCc1ccc(S(=O)(=O)c2cccc(C(=O)NC3CCCC3)c2)cc1)Nc1ccncc1` [3-[(4-{[2-cyano-3-(pyridin-4-yl)carbamimidamido]methyl}benzene)sulfonyl]-N-cyclopentylbenzamide] the same measures were 6.6 nM and 28.3 nM.
The corresponding values for `N#CN=C(NCc1ccc(S(=O)(=O)c2cccc(C(=O)NC3CC3)c2)cc1)Nc1ccncc1` [3-[(4-{[2-cyano-3-(pyridin-4-yl)carbamimidamido]methyl}benzene)sulfonyl]-N-cyclopropylbenzamide] are 2.2 nM and 20 nM.
The corresponding values for `CCNC(=O)c1cccc(S(=O)(=O)c2ccc(CNC(=NC#N)Nc3ccncc3)cc2)c1` [3-[(4-{[2-cyano-3-(pyridin-4-yl)carbamimidamido]methyl}benzene)sulfonyl]-N-ethylbenzamide] are 5.4 nM and 27 nM.
Consider `N#C/N=C(\NCc1ccc(S(=O)(=O)c2ccccc2)cc1)Nc1ccncc1` [3-{[4-(benzenesulfonyl)phenyl]methyl}-2-cyano-1-(pyridin-4-yl)guanidine], for which the figures for the IC50 on NAMPT and with A2780 cells [1] were 2 nM and 12 nM, respectively.
The corresponding values for `CCNC(=O)c1ccc(S(=O)(=O)c2ccc(CNC(=NC#N)Nc3ccncc3)cc2)cc1` [4-[(4-{[2-cyano-3-(pyridin-4-yl)carbamimidamido]methyl}benzene)sulfonyl]-N-ethylbenzamide] are 6.5 nM and 65.8 nM.
The corresponding values for `CNC(=O)c1ccc(S(=O)(=O)c2ccc(CNC(=NC#N)Nc3ccncc3)cc2)cn1` [5-[(4-{[2-cyano-3-(pyridin-4-yl)carbamimidamido]methyl}benzene)sulfonyl]-N-methylpyridine-2-carboxamide] are 6.5 nM and 27.8 nM.
The corresponding values for `N#C/N=C(\NCc1ccc(S(=O)(=O)c2cccc(Cl)c2)cc1)Nc1ccncc1` [(E)-3-({4-[(3-chlorobenzene)sulfonyl]phenyl}methyl)-2-cyano-1-(pyridin-4-yl)guanidine] are 2.6 nM and 4.1 nM.
In the case of `N#C/N=C(\NCc1ccc(S(=O)(=O)c2ccccc2)cc1)NCc1cccnc1` [(E)-3-{[4-(benzenesulfonyl)phenyl]methyl}-2-cyano-1-(pyridin-3-ylmethyl)guanidine], the IC50 is 17 nM on NAMPT and 678 nM in the assay with A2780 cells [1].
Turning to `N#C/N=C(\NCCCCCCOc1ccc(Cl)cc1)Nc1ccncc1` [CHS-828], the cell growth entry with tumor cell lines is given as “potently inhibits cell growth”.
As to `O=C(/C=C/c1cccnc1)NCCCCC1CCN(C(=O)c2ccccc2)CC1` [FK866, (E)-N-[4-(1-benzoylpiperidin-4-yl)butyl]-3-(pyridine-3-yl)-acrylamide], the tumor growth result with mouse mammary carcinoma is on record as “induces a delay in tumor growth”. Also, the “effect on MNNG-induced cell death” value in the assay on K562 leukemia cell line and in the assay with THP-1 leukemia cell line was “chemosensitizing effect” each time. Further, the apoptosis entry with HepG2 cells is listed as “induces apoptosis”. Besides, the “activities in tumor model” value in assay [3] is “anti-tumor, antimetastatic, and anti-angiogenic activities”.

The values are drawn from US9676721B2, “Compounds and compositions for the inhibition of NAMPT” (FORMA TM, LLC, priority 2010, dated 2017).
